# Experiments:
# Type in all cases: cell-based
# EGFR WT (Ba/F3 cells) = target: T1, EGFR WT (Ba/F3 cells) (Homo sapiens, UniProt P00533); assay: Inhibitor activity on EGFR-dependent cell growth (CellTiter-Glo, 72 h), Ba/F3 EGFR WT; settings: read-out: BaF3 WT IC50
# T1 construct: expressed in transfected cells; host or cells: Ba/F3 (murine pro-B cells), retroviral transduction, puromycin selection, maintained with EGF
# Outline: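 This growth assay used Ba/F3 cells that depend on wild-type EGFR and are kept in EGF without IL3. Compounds were made up as 10 mM DMSO stocks and diluted 3-fold over 10 points. 120 nL went onto 600 cells/well. After 72 hours, 40 μL CellTiter-Glo was added and luminescence read on EnVision after 30 min.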
# [1] = target: T2, EGFR exon 20 ASV Ins V769_D770 (Ba/F3 cells) (Homo sapiens, UniProt P00533, INS769ASV); assay: Inhibitor activity on EGFR-dependent cell growth (CellTiter-Glo, 72 h), Ba/F3 EGFR exon 20 ASV Ins; settings: read-out: BaF3 ASV IC50
# T2 construct: expressed in transfected cells; host or cells: Ba/F3 (murine pro-B cells), retroviral transduction, puromycin selection, IL3-independent pool
# Outline: (§1)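 IC50s derive from a sigmoidal dose–response fit of CellTiter-Glo signal. The signal was normalised between […]-treated cells and cell-free medium. Ba/F3 mutant-EGFR cells, seeded at 400–800/well depending on the line, had 72 h of exposure to a 10-point, 3-fold compound series.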
# [2] = target: T3, EGFR exon 20 SVD Ins D770_N771 (Ba/F3 cells) (Homo sapiens, UniProt P00533, INS770SVD); assay: Inhibitor activity on EGFR-dependent cell growth (CellTiter-Glo, 72 h), Ba/F3 EGFR exon 20 SVD Ins; settings: read-out: BaF3 SVD IC50
# T3 construct: expressed in transfected cells; host or cells: Ba/F3 (murine pro-B cells), retroviral transduction, puromycin selection, IL3-independent pool
# Outline: as §1
# [3] = target: T4, EGFR exon 20 FQEA Ins A763_V764 (Ba/F3 cells) (Homo sapiens, UniProt P00533, INS763FQEA); assay: Inhibitor activity on EGFR-dependent cell growth (CellTiter-Glo, 72 h), Ba/F3 EGFR exon 20 FQEA Ins; settings: read-out: BaF3 FQEA IC50
# T4 construct: expressed in transfected cells; host or cells: Ba/F3 (murine pro-B cells), retroviral transduction, puromycin selection, IL3-independent pool
# Outline: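 72 h proliferation, Ba/F3 EGFR mutants (no IL3, puromycin-selected pools, EGFR confirmed by Western blot). Seeding of 400 L858R, 600 L858R/C797S and 800 exon 19del/FQEA cells per well. CellTiter-Glo used; controls were […] (high) and medium alone (low).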
# T3 sequence (P00533 with tags, fused parts or gaps INS770SVD): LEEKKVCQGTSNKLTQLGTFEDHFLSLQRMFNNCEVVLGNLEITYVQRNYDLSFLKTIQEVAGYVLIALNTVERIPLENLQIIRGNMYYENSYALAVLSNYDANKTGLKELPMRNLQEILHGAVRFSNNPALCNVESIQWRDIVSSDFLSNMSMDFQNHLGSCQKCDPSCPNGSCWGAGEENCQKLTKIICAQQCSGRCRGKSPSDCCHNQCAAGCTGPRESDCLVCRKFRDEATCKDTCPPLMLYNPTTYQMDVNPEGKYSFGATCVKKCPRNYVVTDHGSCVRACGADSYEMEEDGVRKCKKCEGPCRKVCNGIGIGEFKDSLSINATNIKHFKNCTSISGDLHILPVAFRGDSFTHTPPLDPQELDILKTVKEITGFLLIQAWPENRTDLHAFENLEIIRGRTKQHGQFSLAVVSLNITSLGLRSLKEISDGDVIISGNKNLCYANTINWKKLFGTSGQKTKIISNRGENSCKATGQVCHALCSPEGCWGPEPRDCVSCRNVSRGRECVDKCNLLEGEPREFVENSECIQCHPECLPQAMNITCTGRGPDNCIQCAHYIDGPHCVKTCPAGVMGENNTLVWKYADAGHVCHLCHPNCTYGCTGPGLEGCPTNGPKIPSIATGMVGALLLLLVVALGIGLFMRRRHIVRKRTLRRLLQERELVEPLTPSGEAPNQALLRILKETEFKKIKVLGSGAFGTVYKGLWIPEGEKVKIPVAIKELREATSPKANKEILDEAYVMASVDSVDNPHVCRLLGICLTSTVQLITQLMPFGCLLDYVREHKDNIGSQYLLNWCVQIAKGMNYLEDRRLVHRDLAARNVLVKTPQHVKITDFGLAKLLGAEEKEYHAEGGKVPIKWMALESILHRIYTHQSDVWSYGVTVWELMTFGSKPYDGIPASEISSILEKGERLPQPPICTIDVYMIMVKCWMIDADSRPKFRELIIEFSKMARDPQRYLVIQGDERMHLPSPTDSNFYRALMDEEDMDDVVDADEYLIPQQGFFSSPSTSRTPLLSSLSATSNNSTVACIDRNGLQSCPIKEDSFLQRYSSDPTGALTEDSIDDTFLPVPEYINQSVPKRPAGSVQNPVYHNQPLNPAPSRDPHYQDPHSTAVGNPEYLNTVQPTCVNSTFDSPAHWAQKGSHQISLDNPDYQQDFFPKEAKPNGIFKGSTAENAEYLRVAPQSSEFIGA
# T1 sequence (P00533 25-1210): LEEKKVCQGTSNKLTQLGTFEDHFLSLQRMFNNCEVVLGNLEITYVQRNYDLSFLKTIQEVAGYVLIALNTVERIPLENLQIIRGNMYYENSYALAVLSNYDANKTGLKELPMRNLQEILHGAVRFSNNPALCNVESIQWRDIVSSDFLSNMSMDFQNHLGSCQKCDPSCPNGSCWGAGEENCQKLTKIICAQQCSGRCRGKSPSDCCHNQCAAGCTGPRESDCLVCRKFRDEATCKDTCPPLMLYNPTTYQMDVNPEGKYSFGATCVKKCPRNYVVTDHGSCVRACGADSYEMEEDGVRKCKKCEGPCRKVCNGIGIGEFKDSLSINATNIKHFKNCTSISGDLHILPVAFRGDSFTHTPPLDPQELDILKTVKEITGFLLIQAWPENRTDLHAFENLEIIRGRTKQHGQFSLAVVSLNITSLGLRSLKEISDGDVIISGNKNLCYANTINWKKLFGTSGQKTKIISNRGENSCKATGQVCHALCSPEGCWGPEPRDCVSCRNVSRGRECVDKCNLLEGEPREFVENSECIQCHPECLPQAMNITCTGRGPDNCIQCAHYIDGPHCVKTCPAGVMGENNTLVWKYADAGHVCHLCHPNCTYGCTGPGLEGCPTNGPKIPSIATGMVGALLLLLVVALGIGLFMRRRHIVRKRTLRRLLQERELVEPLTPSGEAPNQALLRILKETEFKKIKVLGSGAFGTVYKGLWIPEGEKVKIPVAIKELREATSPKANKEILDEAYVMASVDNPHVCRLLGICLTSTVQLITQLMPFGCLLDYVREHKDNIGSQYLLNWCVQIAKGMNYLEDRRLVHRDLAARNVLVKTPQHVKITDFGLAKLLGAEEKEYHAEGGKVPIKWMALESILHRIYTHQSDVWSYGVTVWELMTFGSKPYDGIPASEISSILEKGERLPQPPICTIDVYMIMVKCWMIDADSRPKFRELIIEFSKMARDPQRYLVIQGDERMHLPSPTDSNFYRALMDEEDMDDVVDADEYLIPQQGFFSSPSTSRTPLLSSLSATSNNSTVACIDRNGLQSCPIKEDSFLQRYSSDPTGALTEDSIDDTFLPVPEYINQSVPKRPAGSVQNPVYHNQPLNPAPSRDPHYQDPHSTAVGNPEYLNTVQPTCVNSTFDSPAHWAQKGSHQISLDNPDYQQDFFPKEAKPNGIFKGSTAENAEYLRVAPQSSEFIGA
# T2 sequence (P00533 with tags, fused parts or gaps INS769ASV): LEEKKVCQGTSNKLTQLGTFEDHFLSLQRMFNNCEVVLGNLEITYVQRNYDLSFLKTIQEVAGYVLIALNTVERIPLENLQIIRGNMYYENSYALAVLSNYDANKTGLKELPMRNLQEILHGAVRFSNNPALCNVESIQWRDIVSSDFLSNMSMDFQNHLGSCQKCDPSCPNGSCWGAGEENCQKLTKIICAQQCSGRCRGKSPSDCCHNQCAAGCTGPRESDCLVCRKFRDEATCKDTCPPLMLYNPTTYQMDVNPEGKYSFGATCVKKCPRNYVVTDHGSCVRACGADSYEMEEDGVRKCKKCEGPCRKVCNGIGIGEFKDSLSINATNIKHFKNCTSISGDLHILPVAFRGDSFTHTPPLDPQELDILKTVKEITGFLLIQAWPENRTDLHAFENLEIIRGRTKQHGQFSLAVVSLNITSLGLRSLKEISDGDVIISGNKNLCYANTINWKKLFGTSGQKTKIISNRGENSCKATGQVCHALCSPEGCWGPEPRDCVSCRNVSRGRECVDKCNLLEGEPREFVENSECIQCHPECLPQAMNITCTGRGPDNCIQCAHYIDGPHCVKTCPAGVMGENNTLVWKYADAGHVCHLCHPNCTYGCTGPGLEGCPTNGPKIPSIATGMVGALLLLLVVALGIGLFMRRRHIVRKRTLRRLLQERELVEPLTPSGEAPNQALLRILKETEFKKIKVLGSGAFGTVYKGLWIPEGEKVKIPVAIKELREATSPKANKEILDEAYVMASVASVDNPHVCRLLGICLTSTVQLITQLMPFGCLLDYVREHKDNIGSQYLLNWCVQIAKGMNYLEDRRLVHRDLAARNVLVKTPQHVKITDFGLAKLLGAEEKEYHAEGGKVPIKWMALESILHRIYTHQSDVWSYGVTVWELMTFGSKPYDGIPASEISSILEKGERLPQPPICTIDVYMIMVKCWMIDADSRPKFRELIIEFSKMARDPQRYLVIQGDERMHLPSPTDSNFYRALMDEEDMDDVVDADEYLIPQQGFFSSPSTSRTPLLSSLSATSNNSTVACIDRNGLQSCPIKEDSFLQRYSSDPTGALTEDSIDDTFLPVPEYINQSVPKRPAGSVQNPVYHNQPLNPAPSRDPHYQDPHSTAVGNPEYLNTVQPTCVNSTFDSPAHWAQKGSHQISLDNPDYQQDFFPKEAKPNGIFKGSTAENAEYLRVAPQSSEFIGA
# T4 sequence (P00533 with tags, fused parts or gaps INS763FQEA): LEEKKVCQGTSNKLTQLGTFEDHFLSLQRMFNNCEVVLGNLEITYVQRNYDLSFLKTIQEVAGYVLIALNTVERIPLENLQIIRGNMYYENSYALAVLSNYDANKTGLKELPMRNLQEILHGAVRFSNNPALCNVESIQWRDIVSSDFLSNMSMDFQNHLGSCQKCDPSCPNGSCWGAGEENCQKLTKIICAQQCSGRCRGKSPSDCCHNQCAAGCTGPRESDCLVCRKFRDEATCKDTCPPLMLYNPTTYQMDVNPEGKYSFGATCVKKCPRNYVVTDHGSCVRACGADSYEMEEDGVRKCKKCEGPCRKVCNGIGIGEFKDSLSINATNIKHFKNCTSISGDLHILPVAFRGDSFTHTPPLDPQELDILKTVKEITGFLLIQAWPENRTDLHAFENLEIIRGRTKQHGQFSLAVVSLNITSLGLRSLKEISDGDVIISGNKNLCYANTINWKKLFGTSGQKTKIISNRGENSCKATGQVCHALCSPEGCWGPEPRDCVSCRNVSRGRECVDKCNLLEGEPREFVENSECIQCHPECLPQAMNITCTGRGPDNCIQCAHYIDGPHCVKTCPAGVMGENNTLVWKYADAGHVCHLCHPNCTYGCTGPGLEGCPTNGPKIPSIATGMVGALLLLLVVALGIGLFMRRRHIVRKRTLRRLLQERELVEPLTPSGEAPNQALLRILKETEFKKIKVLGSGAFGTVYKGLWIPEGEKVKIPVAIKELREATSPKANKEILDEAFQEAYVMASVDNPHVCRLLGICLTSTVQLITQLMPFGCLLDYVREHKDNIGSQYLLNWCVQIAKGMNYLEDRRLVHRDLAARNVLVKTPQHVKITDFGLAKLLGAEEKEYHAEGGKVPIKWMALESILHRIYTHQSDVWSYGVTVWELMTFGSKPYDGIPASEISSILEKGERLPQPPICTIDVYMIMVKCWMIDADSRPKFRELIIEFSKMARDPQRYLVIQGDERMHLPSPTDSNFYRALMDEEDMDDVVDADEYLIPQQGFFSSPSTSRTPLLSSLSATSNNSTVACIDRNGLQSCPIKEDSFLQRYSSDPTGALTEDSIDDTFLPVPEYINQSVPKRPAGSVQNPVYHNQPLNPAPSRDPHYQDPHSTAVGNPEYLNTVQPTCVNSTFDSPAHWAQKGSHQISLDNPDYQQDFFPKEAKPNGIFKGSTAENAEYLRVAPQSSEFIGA
IC50 (EGFR WT (Ba/F3 cells)),IC50 [1],IC50 [2],IC50 [3],Compound
> 1000 nM,> 1000 nM,100 to 1000 nM,100 to 1000 nM,"COc1ncc2nccc(-c3[nH]c4c(c3Nc3cccc(Cl)c3OC)C(=O)N[C@H](C(F)(F)F)C4)c2n1 [Compound 508, (6S)-3-[(3-chloro-2-methoxyphenyl)amino]-2-{2-methoxypyrido[3,2-d]pyrimidin-8-yl}-6-(trifluoromethyl)-1H,5H,6H,7H-pyrrolo[3,2-c]pyridin-4-one]"
100 to 1000 nM,100 to 1000 nM,< 100 nM,100 to 1000 nM,"COc1c(Cl)cccc1Nc1c(-c2ccnc3[nH]c(=O)c(OC)nc23)[nH]c2c1C(=O)NCC2 [compound 729, 8-(3-((3-chloro-2-methoxyphenyl)amino)-4-oxo-4,5,6,7-tetrahydro-1H-pyrrolo[3,2-c]pyridin-2-yl)-2-methoxypyrido[2,3-b]pyrazin-3 (4H)-one]"
> 1000 nM,100 to 1000 nM,100 to 1000 nM,100 to 1000 nM,"COc1c(Cl)cccc1Nc1c(-c2ccnc(N)n2)[nH]c2c1C(=O)NC(CO)C2 (centres unmarked) [Compound 751, 2-(2-aminopyrimidin-4-yl)-3-[(3-chloro-2-methoxyphenyl)amino]-6-(hydroxymethyl)-1H,5H,6H,7H-pyrrolo[3,2-c]pyridin-4-one]"
100 to 1000 nM,100 to 1000 nM,< 100 nM,< 100 nM,"COc1ncc2nccc(-c3[nH]c4c(c3Nc3cccc(C)c3F)C(=O)NCC4)c2n1 [Compound 804, 3-[(2-fluoro-3-methylphenyl)amino]-2-[2-methoxypyrido[3,2-d]pyrimidin-8-yl]-1H,5H,6H,7H-pyrrolo[3,2-c]pyridin-4-one]"
100 to 1000 nM,< 100 nM,< 100 nM,< 100 nM,"COc1nc2c(-c3[nH]c4c(c3Nc3cccc(Cl)c3OC)C(=O)NCC4)ccnc2cc1F [compound 477, 3-[(3-chloro-2-methoxyphenyl)amino]-2-(7-fluoro-6-methoxy-1,5-naphthyridin-4-yl)-1H,5H,6H,7H-pyrrolo[3,2-c]pyridin-4-one]"
< 100 nM,< 100 nM,< 100 nM,< 100 nM,"COc1ccc2nccc(-c3[nH]c4c(c3Nc3cccc(Cl)c3OC)C(=O)NC[C@@H]4CCF)c2n1 [Compound 744, (S)-3-((3-chloro-2-methoxyphenyl)amino)-7-(2-fluoroethyl)-2-(6-methoxy-1,5-naphthyridin-4-yl)-1,5,6,7-tetrahydro-4H-pyrrolo[3,2-c]pyridin-4-one]"
100 to 1000 nM,100 to 1000 nM,100 to 1000 nM,< 100 nM,C=CC(=O)N1CC[C@]2(CNC(=O)c3c2[nH]c(-c2ccncc2F)c3Nc2cccc(Cl)c2OC)C1 [compound 520]
> 1000 nM,100 to 1000 nM,100 to 1000 nM,100 to 1000 nM,C=CC(=O)N1CC[C@@]2(CNC(=O)c3c2[nH]c(-c2ccncc2F)c3Nc2cccc(Cl)c2OC)C1 [compound 521]
< 100 nM,< 100 nM,< 100 nM,< 100 nM,"COc1c(Cl)cccc1Nc1c(-c2ccnc(Nc3cc(C)n(C)n3)n2)[nH]c2c1C(=O)NCC2 [compound 513, 3-[(3-chloro-2-methoxyphenyl)amino]-2-{2-[(1,5-dimethylpyrazl-3-yl)amino]pyrimidin-4-yl}-1H,5H,6H,7H-pyrrolo[3,2-c]pyridin-4-one]"
> 1000 nM,100 to 1000 nM,100 to 1000 nM,100 to 1000 nM,"COc1c(Cl)cccc1Nc1c(-c2ccncc2F)[nH]c2c1C(=O)NC[C@@]21CCOC1 (single isomer, unassigned) [Compound 781]"
> 1000 nM,> 1000 nM,> 1000 nM,> 1000 nM,"COc1ncc2nccc(-c3[nH]c4c(c3Nc3cccc(Cl)c3OC(F)(F)F)C(=O)NCC4)c2n1 [Compound 802, 3-[[3-chloro-2-(trifluoromethoxy)phenyl]amino]-2-[2-methoxypyrido[3,2-d]pyrimidin-8-yl]-1H,5H,6H,7H-pyrrolo[3,2-c]pyridin-4-one]"
> 1000 nM,< 100 nM,< 100 nM,100 to 1000 nM,"COc1c(Cl)cccc1Nc1c(-c2ccnc3cnc(OCCCN4CCOCC4)nc23)[nH]c2c1C(=O)NCC2 [compound 505, 3-[(3-chloro-2-methoxyphenyl)amino]-2-{2-[3-(morpholin-4-yl)propoxy]pyrido[3,2-d]pyrimidin-8-yl}-1H,5H,6H,7H-pyrrolo[3,2-c]pyridin-4-one]"
100 to 1000 nM,< 100 nM,< 100 nM,< 100 nM,"COc1c(Cl)cccc1Nc1c(-c2ccnc3cnc(C4CC4)nc23)[nH]c2c1C(=O)NCC2 [Compound 776, 3-[(3-chloro-2-methoxyphenyl)amino]-2-{2-cyclopropylpyrido[3,2-d]pyrimidin-8-yl}-1H,5H,6H,7H-pyrrolo[3,2-c]pyridin-4-one]"
100 to 1000 nM,100 to 1000 nM,100 to 1000 nM,100 to 1000 nM,COc1c(F)cccc1Nc1c(-c2ccnc(SC)n2)[nH]c2c1C(=O)NCC2 [compound 255]
100 to 1000 nM,< 100 nM,< 100 nM,< 100 nM,COc1c(Cl)cccc1Nc1c(-c2ccnc3cc(F)cnc23)[nH]c2c1C(=O)NCC2 [Compound 826]
> 1000 nM,> 1000 nM,> 1000 nM,> 1000 nM,"COc1c(F)cccc1Nc1c2c(n(C)c1-c1ccncc1F)CCNC2=O [Compound 789, 3-[(3-fluoro-2-methoxyphenyl)amino]-2-(3-fluoropyridin-4-yl)-1-methyl-5H,6H,7H-pyrrolo[3,2-c]pyridin-4-one]"
> 1000 nM,100 to 1000 nM,100 to 1000 nM,100 to 1000 nM,"COc1c(Cl)cccc1Nc1c(-c2ccncc2F)[nH]c2c1C(=O)NCC21COC1 [Compound 748, 3′-[(3-chloro-2-methoxyphenyl)amino]-2′-(3-fluoropyridin-4-yl)-5′,6′-dihydro-1′H-spiro[oxetane-3,7′-pyrrolo[3,2-c]pyridin]-4′-one]"
100 to 1000 nM,100 to 1000 nM,< 100 nM,< 100 nM,"COc1ncc2nccc(-c3[nH]c4c(c3Nc3cccc(F)c3F)C(=O)NCC4)c2n1 [Compound 805, 3-[(2,3-difluorophenyl)amino]-2-[2-methoxypyrido[3,2-d]pyrimidin-8-yl]-1H,5H,6H,7H-pyrrolo[3,2-c]pyridin-4-one]"
> 1000 nM,100 to 1000 nM,100 to 1000 nM,100 to 1000 nM,COc1c(Cl)cccc1Nc1c(-c2ccncc2F)[nH]c2c1C(=O)NC[C@H]2CC1COC1 [468b]
> 1000 nM,> 1000 nM,> 1000 nM,> 1000 nM,COc1c(Cl)cccc1Nc1c(-c2ccnc(NC[C@H]3CCO3)n2)[nH]c2c1C(=O)NCC2 [compound 720]
< 100 nM,< 100 nM,< 100 nM,< 100 nM,"COc1c(Cl)cccc1Nc1c(-c2ccnc3ccc(OC4CC4)nc23)[nH]c2c1C(=O)NCC2 [compound 677, 3-[(3-chloro-2-methoxyphenyl)amino]-2-(6-cyclopropoxy-1,5-naphthyridin-4-yl)-1H,5H,6H,7H-pyrrolo[3,2-c]pyridin-4-one]"
100 to 1000 nM,< 100 nM,< 100 nM,100 to 1000 nM,"COc1c(Cl)cccc1Nc1c(-c2ccnc(NCc3ccn(C)n3)n2)[nH]c2c1C(=O)NCC2 [Compound 709, 3-[(3-chloro-2-methoxyphenyl)amino]-2-(2-[[(1-methylpyrazol-3-yl)methyl]amino]pyrimidin-4-yl)-1H,5H,6H,7H-pyrrolo[3,2-c]pyridin-4-one]"

Compound,IC50 (EGFR WT (Ba/F3 cells)),IC50 [1],IC50 [2],IC50 [3]
"COc1c(Cl)cccc1Nc1c(-c2ccnc3ccc(OC4CCC4)nc23)[nH]c2c1C(=O)NCC2 [compound 768, 3-[(3-chloro-2-methoxyphenyl)amino]-2-(6-cyclobutoxy-1,5-naphthyridin-4-yl)-1H,5H,6H,7H-pyrrolo[3,2-c] pyridin-4-one]",100 to 1000 nM,< 100 nM,< 100 nM,< 100 nM

# Source: patent US20240101576A1, “HETEROCYCLIC INHIBITORS OF EGFR AND/OR HER2, FOR USE IN THE TREATMENT OF CANCER” (Scorpion Therapeutics, Inc., priority 2020, published 2024)
